According to patent publication US20120225852A1, “USE OF STEROID COMPOUNDS” (priority 2009, published 2012):

Key:
[1] = test system: Lymph node (LN) cells from unprimed DO11.10 TCR Tg mice; assay: OVA-stimulated lymph node cell culture, T cell proliferation; assay type: cell-based
[2] = test system: purified CD4+ T cells from unprimed DO11.10 TCR Tg mice; assay: Purified CD4+ T cells with mitomycin C-treated splenocytes and OVA peptide 323-339; assay type: cell-based; settings: OVA peptide 323-339; FIG. 2
Description: (§1) The decreased proliferative response of CD4^+ T cells was not due to increased cell death as evident by similar numbers of CD4^+ 7AAD^− cells in all cultures after flow-cytometric analysis (FIG. 4).

[3] = test system: purified CD4+ T cells from unprimed BALB/c mice; assay: Purified CD4+ T cells stimulated with α-CD3/α-CD28; assay type: cell-based; settings: non antigen-specific stimulation; FIG. 3
Description: as §1

[4] = test system: Draining lymph node cells from mice induced to develop EAE; assay: Ex vivo response of draining lymph node cells to MOG35-55, mice treated from EAE induction; assay type: in vivo, C57BL/6 mice; settings: treatment from EAE induction
Description: Acute EAE was induced in C57BL/6 mice by immunizing them against the pathogenic myelin oligodendrocyte glycoprotein (MOG) peptide (amino acids 35-55). […] Mice were monitored daily in a blinded fashion for clinical symptoms (paralysis). Tissues (brain, spinal cord, DLNs) were collected in order to perform histological evaluation (staining with H&E on brain and spinal cord sections) and ex vivo cultures for measurement of T cell responses and cytokine release.
Also tested were the proliferative response and cytokine secretion of lymphoid cells (T cells) to MOG35-55 peptide from the mice that had been induced to develop EAE. […] In addition, the secretion of the inflammatory cytokine IL-17 was increased (FIG. 9d), but its absolute increase was extremely low in comparison to the IFN-γ increase.

[5] = test system: experimental autoimmune encephalomyelitis (EAE); assay: MOG peptide-induced EAE, treatment from the day of EAE onset; assay type: in vivo, C57BL/6 mice; settings: 2 mg/mouse i.p. daily from EAE onset until day 26
Description: (§2) Tests were also carried out to discover whether DHEA and its spiro-analogs were protective after the onset of experimental autoimmune encephalomyelitis (EAE). For these tests, acute EAE was induced in C57BL/6 mice, as previously described. […] Mice were monitored daily in a blinded fashion for clinical symptoms (paralysis). Tissues (brain, spinal cord, DLNs) were collected in order to perform histological evaluation (staining with H&E on brain and spinal cord sections) and ex vivo cultures for measurement of T cell responses and cytokine release.

[6] = test system: Draining lymph node cells from mice induced to develop EAE; assay: Ex vivo cytokine secretion of draining lymph node cells to MOG35-55, mice treated from EAE onset; assay type: in vivo, C57BL/6 mice; settings: treatment from EAE onset
Description: as §2
Also tested were the cytokine secretion of lymphoid cells (T cells) to MOG35-55 peptide from the mice that had been induced to develop EAE.

[7] = test system: allergic airway inflammation; assay: Mouse model of allergic asthma (OVA/alum sensitization, aerosolized OVA); assay type: in vivo, BALB/c mice
Description: BALB/c mice were sensitized with 0.01 mg chicken ovalbumin (OVA) in 0.2 ml alum intraperitoneally on days 0 and 12, and were exposed to aerosolized OVA (5% for 20 min) on days 18-20.

[8] = test system: established MOG peptide-induced EAE; assay: Established MOG peptide-induced EAE, treatment from day 13; assay type: in vivo, C57BL/6 mice
Description: (§3) Acute EAE was induced in C57BL/6 mice by immunizing the animals against the pathogenic myelin oligodendrocyte glycoprotein (MOG) peptide (amino acids 35-55). Mice were left untreated until disease symptoms were apparent (score 1-2) at around day 12. […] Mice were monitored daily in a blinded fashion for clinical symptoms (paralysis). Tissues (brain, spinal cord, DLNs) were collected in order to perform histological evaluation (staining with H&E on brain and spinal cord sections) and ex vivo cultures for measurement of T cell responses and cytokine release.

[9] = test system: Draining lymph node cells from mice induced to develop EAE; assay: Immune responses of mice with established EAE treated from day 13 (DLN cells to MOG35-55, cell subsets); assay type: in vivo, C57BL/6 mice
Description: as §3

[10] = test system: ongoing EAE in recipient mice; assay: Adoptive transfer of CD4+ T cells from treated EAE donors into recipients with ongoing EAE; assay type: in vivo
[11] = test system: EAE in C57BL/6 Rag−/− recipients; assay: Adoptive transfer of CD4+ T cells from treated EAE donors into C57BL/6 Rag-/- recipients; assay type: in vivo, C57BL/6 Rag−/− mice
[12] = test system: EAE; assay: EAE after cessation of 15 days of treatment, 45 additional days of monitoring; assay type: in vivo, C57BL/6 mice
Description: The mice continued to be monitored daily for clinical signs of EAE for 45 additional days thereafter.

[13] = test system: Naive CD4+ T cells; assay: Naive CD4+ T cells under Th17 cell polarizing conditions; assay type: cell-based
[14] = test system: naïve CD4+ T cells; assay: Naive CD4+ T cells under Treg cell generating conditions; assay type: cell-based
[15] = test system: response to OVA in EAE-induced mice; assay: EAE mice treated for 15 days, then immunized with OVA/CFA; assay type: in vivo, C57BL/6 mice
Description: Treatment stopped and mice were then injected with OVA/CFA (Complete Freund's Adjuvant).
Instead, the response to a new antigen that the mice are exposed to is enhanced.

C[C@]12CC[C@H](O)CC1=CC[C@@H]1[C@@H]2CC[C@]2(C)C(=O)CC[C@@H]12 [DHEA, dehydroepiandrosterone]
proliferation of the T cells that respond to the antigen ([1]; LN cells stimulated with OVA, vs control RPMI, FIG. 1): significantly decreased | effect on T cell responses in general ([1]; overall conclusion of Example 1 (FIGS. 1-4)): immunosuppressive effect | proliferation [2]: significantly decreased | secretion of IFN-γ [2]: significantly decreased | secretion of IL-2 [2]: significantly decreased | effect on α-CD3/α-CD28 stimulated CD4+ T cells [3]: same suppressive effect | pathogenic immune response ([4]; overall conclusion): significantly suppressed | proliferation to MOG35-55 peptide ([4]; FIG. 9a): significantly decreased | amounts of IFN-γ produced ([4]; FIG. 9b): substantially increased | amounts of IL-10 produced ([4]; FIG. 9c): substantially increased | secretion of IL-17 ([4]; absolute increase extremely low compared to IFN-γ, FIG. 9d): increased | degree of paralysis [5]: decreased | clinical course ([5]; FIG. 11): improvement/reversal | mean maximum score ([5]; FIG. 12): decrease | amounts of IL-10 produced ([6]; FIG. 13a): greatly increased | secretion of IFN-γ ([6]; FIG. 13b): substantially decreased | secretion of IL-17 ([6]; FIG. 13c): substantially decreased | levels of OVA-specific IgE ([7]; 2 mg/mouse): significantly decreased | levels of OVA-specific IgG1 ([7]; 2 mg/mouse): significantly decreased | levels of OVA-specific IgG2a ([7]; 2 mg/mouse): significantly decreased | numbers of CD3+CD4+ CD25+ Foxp3+ T cells (T regulatory cells) ([7]; 2 mg/mouse): substantially increased | numbers of suppressive CD11c+PDCA-1+ plasmacytoid dendritic cells (pDCs) ([7]; 2 mg/mouse): substantially increased | numbers of eosinophils in the bronchoalveolar lavage (BAL) ([7]; 2 mg/mouse on days 0,1,2,12,13,14,18,19,20, vs PBS-treated mice, FIG. 14a): significantly decreased | numbers of lymphomononuclear cells in the bronchoalveolar lavage (BAL) ([7]; 2 mg/mouse, vs PBS-treated mice, FIG. 14a): significantly decreased | lung leukocytic infiltration ([7]; 2 mg/mouse, FIG. 14b): significantly decreased | OVA-specific T cell proliferation ([7]; draining lymph nodes, FIG. 14c): significantly decreased | allergic airway inflammation, Th2 responses and B cell responses ([7]; overall conclusion of Example 3): suppress | clinical course ([8]; 2 mg/mouse i.p. daily from day 13, FIG. 16): significant improvement | mean maximum score ([8]; 2 mg/mouse i.p. daily from day 13, FIG. 17): decrease | inflammation in the spinal cord ([8]; 2 mg/mouse i.p. daily from day 13, FIG. 18): decreased inflammation | degree of paralysis ([8]; 2 mg/mouse i.p. daily from day 13 until day 26-28): significantly decreased | ongoing MOG peptide-induced EAE ([8]; overall conclusion, treatment from day 13): suppressed | pathogenic immune response and symptoms ([9]; overall conclusion, mice with ongoing EAE): significantly suppressed | proliferation to MOG35-55 peptide ([9]; treatment from day 13, FIG. 19a): significantly decreased | amounts of IFN-γ produced ([9]; treatment from day 13, FIG. 19b): substantially decreased | amounts of IL-17 produced ([9]; treatment from day 13, FIG. 19c): substantially decreased | IL-10+ Treg cells ([9]; treatment from day 13, FIG. 20): significantly increased | secretion of IL-10 ([9]; treatment from day 13, FIG. 19d): increased | mean maximum EAE score ([10]; CD4+ T cell transfer into recipients with ongoing EAE, FIGS. 28 and 29): significant decrease | proliferation to MOG35-55 ex vivo ([10]; DLN cells and splenocytes of recipients, FIG. 30): significantly decreased | ex vivo proliferation to MOG35-55 ([11]; DLN cells of Rag−/− recipients, FIG. 33a): substantially decreased | production of IFN-γ ([11]; DLN cells of Rag−/− recipients, FIG. 33b): decreased production | production of IL-17 ([11]; DLN cells of Rag−/− recipients, FIG. 33c): decreased production | EAE scores induced in recipients ([11]; after pertussis toxin injections, FIGS. 31 and 32): very low EAE scores | protection from EAE development after cessation of treatment ([12]; treated 15 days from around day 13, monitored 45 additional days, FIGS. 34 and 35): remained protected | disease score after cessation of treatment ([12]; treated 15 days, monitored 45 additional days, vs control mice): remained unchanged | number of CD4+ IL-10-secreting T cells ([13]; among Th17 differentiating cells, 4 days, FIG. 37): significant increase | number of CD4+ IL-17-secreting T cells ([13]; and rIL-6, 4 days, vs RPMI, FIG. 36): increase | proliferation ([14]; Treg cell generating conditions, 5 days, FIG. 39): increased | number of Foxp3+ Treg cells ([14]; rIL-2, with or even without rTGF-β1, 5 days, FIG. 38): significant increase | production of IFN-γ ([15]; after OVA/CFA immunization): increased | T cell response to OVA ex vivo (3H-Thymidine incorporation) ([15]; after OVA/CFA immunization, FIG. 40): substantially increased | EAE phenotype after end of treatment and OVA/CFA injection ([15]; in comparison to control mice): stable phenotype without any deterioration | protection from EAE ([15]; treated 15 days from shortly after disease onset, then OVA/CFA): clearly protected
